The target of one assay is protein kinase A (PKA) (Homo sapiens, UniProt P17612). In words: SERS detection of small molecule binding to protein after size exclusion spin column. As to conditions: 2.5 μM H-89, 0.2 mg/mL protein, PKA reaction buffer, 30 minutes at room temperature; flow through, difference of SERS spectra at 70° C. and room temperature. On the procedure: In FIG. 2 small molecules and proteins are mixed in a purification column such as a size exclusion spin column and are allowed to incubate for a period of time. The incubation times depends on the binding affinity between the small molecule and the protein. Typically an incubation time of 10-30 minutes at room temperature is sufficient. The solvent used in the purification column is preferably chosen to optimize binding between the small molecules and the proteins. For example, PKA reaction buffer (50 mM Tris-HCl, 10 mM MgCl2) is preferably used for optimal binding between PKA and H-89.
For example, molecules with molecular weights below a certain cut-off value are retained in the size-exclusion type purification columns while protein molecules are collected in the flow through. Any small molecules that bind to the protein can also be carried through the column with the protein and recovered in the flow through. Raman spectroscopy using SERS active particles can be used to detect the small molecules in the flow through.
In FIG. 2-2 the small molecules are first released from the proteins in the flow through by, for example, heating the flow through. Raman spectroscopy is then again used to detect the presence of the small molecules in the flow through.
H-89 is a known small molecule inhibitor to protein kinase A (PKA). […]

The test system of another assay is Histone. As to the kind of experiment: SERS detection of small molecule binding to protein after size exclusion spin column (negative control protein). The settings on record: 2.5 μM H-89, 0.2 mg/mL protein, same procedure. On the procedure:
(§1) PIERCE ZEBA-ZEBA desalt spin columns (cat #89882) were washed 10 times with methanol and 10 times with purified water. H-89 was then mixed with PKA or control proteins in a PKA reaction buffer (50 mM Tris-HCl, 10 mM MgCl2), making a final H-89 concentration of 2.5 μM and protein concentration of 0.2 mg/mL. This mixture was incubated at room temperature for 30 minutes, added to a desalting size exclusion spin column, and spun at 1500 g for 2 minutes to remove free H-89.
(§2) The silver colloids are aggregated by 0.5M of Lithium Chloride prior to addition of the sample. Ten spectra are collected from the mixture of sample and aggregated silver colloids. The remaining flow through is heated at 70° C. for 10 minutes, and another SERS measurement is performed. The line labeled PKA is the arithmetic difference in the SERS spectrums at 70° C. and room temperature (intensity on the primary y-axis). The main characteristic peaks of H-89 are visible and marked by black arrows.
(§3) The same procedure described above is repeated with other proteins including bovine serum albumin (labeled BSA), immunoglobulin G (labeled IgG), and Histone (labeled as Histone) as negative controls. The SERS spectrum corresponding to H-89 is not seen in any of these controls.
On the technique in general: Size exclusion chromatography separates by hydrodynamic size, large species first.

For assay [1], the target named is bovine serum albumin (BSA) (Bos taurus, UniProt P02769). The description is as above. As to conditions: 2.5 μM H-89, 0.2 mg/mL protein, same procedure. On the procedure:
as §1, §2, §3

For the next assay, the system named is immunoglobulin G (IgG). The description is as above. As to conditions: 2.5 μM H-89, 0.2 mg/mL protein, same procedure. The method, then: as §1, §2, §3

SMILES strings stand for the structures.

Sequence of bovine serum albumin (BSA) (P02769 25-607): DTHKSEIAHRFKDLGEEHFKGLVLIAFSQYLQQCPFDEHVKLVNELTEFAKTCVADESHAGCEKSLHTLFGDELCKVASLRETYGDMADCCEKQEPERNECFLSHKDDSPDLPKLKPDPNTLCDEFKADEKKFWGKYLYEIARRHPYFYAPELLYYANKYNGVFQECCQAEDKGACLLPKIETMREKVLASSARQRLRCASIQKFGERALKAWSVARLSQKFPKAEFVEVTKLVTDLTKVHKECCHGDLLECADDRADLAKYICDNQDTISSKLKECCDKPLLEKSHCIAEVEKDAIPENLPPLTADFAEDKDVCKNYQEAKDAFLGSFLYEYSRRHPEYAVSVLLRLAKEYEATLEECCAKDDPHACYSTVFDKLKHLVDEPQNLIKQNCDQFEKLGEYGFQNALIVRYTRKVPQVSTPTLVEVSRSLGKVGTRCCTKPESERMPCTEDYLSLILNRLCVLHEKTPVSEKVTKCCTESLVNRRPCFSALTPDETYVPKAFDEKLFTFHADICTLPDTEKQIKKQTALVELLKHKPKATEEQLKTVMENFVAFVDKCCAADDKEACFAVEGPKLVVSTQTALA

`O=S(=O)(NCCNC/C=C/c1ccc(Br)cc1)c1cccc2cnccc12` [H-89]: the “binding to PKA (characteristic H-89 peaks in SERS difference spectrum)” value on protein kinase A (PKA) was “there was binding of H-89 to PKA”. In addition, in the assay on Histone, the “specific binding to Histone (SERS spectrum corresponding to H-89)” value was “specific binding of H-89 to the control proteins did not occur”. For the same compound, the “specific binding to BSA (SERS spectrum corresponding to H-89)” value in assay [1] is on record as “specific binding of H-89 to the control proteins did not occur”. For the same compound, the “specific binding to IgG (SERS spectrum corresponding to H-89)” value in the assay with immunoglobulin G (IgG) is recorded as “specific binding of H-89 to the control proteins did not occur”.
